Reference: the CheMixHub viscosity set
Several values for one entry are separate records, joined by “and”; a condition that tells them apart may be missing. Identical values can stand only once.

Test: xn = mol fraction of the nth substance listed

O=S(=O)([N-]S(=O)(=O)C(F)(F)F)C(F)(F)F.On1cc[n+](O)c1 + CCCO
100 kPa
Conditions | viscosity [mPa·s]
293.15 K, x1 = 0.3992 | 31.05
293.15 K, x1 = 0.5999 | 65.75
303.15 K, x1 = 0.7996 | 77.95
313.15 K, x1 = 0.4985 | 20.85

C[N+](=O)[O-] + Cc1ccccc1
298.15 K, 101 kPa
Conditions | viscosity [mPa·s]
x1 = 0.1803 | 0.5448
x1 = 0.3318 | 0.5368
x1 = 0.4595 | 0.5331
x1 = 0.5699 | 0.534
x1 = 0.665 | 0.542
x1 = 0.7483 | 0.5534
x1 = 0.8226 | 0.5683
x1 = 0.888 | 0.5861
x1 = 0.9472 | 0.6066

[Na+].[Na+].[O]=[Cr](=[O])([O-])[O-] + O
viscosity, 101 kPa
Conditions | x1 = 0.012 | x1 = 0.02109 | x1 = 0.027 | x1 = 0.045 | x1 = 0.069 | x1 = 0.083
298.15 K | 1.16 mPa·s | 1.38 mPa·s | 1.68 mPa·s | 2.88 mPa·s | 6.14 mPa·s | 10.03 mPa·s
312.95 K | 0.85 mPa·s and 0.8523 mPa·s | – | 1.23 mPa·s | 1.98 mPa·s | 3.9 mPa·s | 5.94 mPa·s

CCCCOCCOCCOCCO + O
viscosity [mPa·s], 101 kPa
Conditions | 293.15 K | 303.15 K | 313.15 K | 323.15 K
x1 = 0.009612 | 1.536 | 1.175 | 0.9391 | 0.7657
x1 = 0.02136 | 2.342 | 1.741 | 1.356 | 1.094
x1 = 0.03602 | 3.496 | 2.526 | 1.935 | 1.519
x1 = 0.05509 | 5.103 | 3.614 | 2.685 | 2.137
x1 = 0.08023 | 7.018 | 4.832 | 3.562 | 2.692
x1 = 0.1156 | 9.156 | 6.189 | 4.476 | 3.293
x1 = 0.1685 | 11.21 | 7.424 | 5.289 | 3.913
x1 = 0.2571 | 12.63 | 8.311 | 5.912 | 4.406
x1 = 0.3308 | 12.68 | 8.439 | 6.038 | 4.477
x1 = 0.4398 | 12.35 | 8.238 | 5.926 | 4.406
x1 = 0.5322 | 11.78 | 7.929 | 5.747 | 4.329
x1 = 0.5991 | 11.36 | 7.685 | 5.612 | 4.257
x1 = 0.7291 | 10.51 | 7.271 | 5.407 | 4.147
x1 = 0.8068 | 10.13 | 7.083 | 5.264 | 4.088
x1 = 0.8905 | 9.778 | 6.856 | 5.143 | 3.936

C[N+](=O)[O-] + CCC(C)=O
298.15 K, 101 kPa
Conditions | viscosity [mPa·s]
x1 = 0.1563 | 0.4237
x1 = 0.2954 | 0.4466
x1 = 0.418 | 0.4694
x1 = 0.5281 | 0.4923
x1 = 0.6264 | 0.515
x1 = 0.7156 | 0.5377
x1 = 0.7963 | 0.5604
x1 = 0.8703 | 0.5834
x1 = 0.9376 | 0.6067
